PubChem BioAssay AID250 (DTP/NCI, 2004)
Where “and” joins values, the source holds several entries; their conditions need not be identical. Identical values can stand only once. Toxic doses and inconclusive results are not listed.

Test system: BDF1 mice, L1210 leukemia sc, survival T/C
Test: NCI In Vivo Anticancer Drug Screen. Data for tumor model L1210 Leukemia (subcutaneous) in B6D2F1 (BDF1) mice
Conditions: endpoint: median survival time, higher = longer survival
Outline: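 Expressed as T/C: measurement in compound-treated, tumor-bearing mice relative to vehicle-treated control mice, based on survival or tumor size.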

[1] = dose: 108.0 mg/kg/injection, schedule: Q01DX Z (sc), vehicle: methylcellulose (MC)
[2] = dose: 180.0 mg/kg/injection, schedule: Q01DX Z (sc), vehicle: methylcellulose (MC)
[3] = dose: 300.0 mg/kg/injection, schedule: Q01DX Z (sc), vehicle: methylcellulose (MC)
[4] = dose: 39.0 mg/kg/injection, schedule: Q01DX Z (sc), vehicle: saline
[5] = dose: 65.0 mg/kg/injection, schedule: Q01DX Z (sc), vehicle: saline
[6] = dose: 39.0 mg/kg/injection, schedule: Q01DX Z (sc), vehicle: methylcellulose (MC)
[7] = dose: 65.0 mg/kg/injection, schedule: Q01DX Z (sc), vehicle: methylcellulose (MC)

## CCOC(=O)NP(=O)(N1CC1)N1CC1
dose: 5.0 mg/kg/injection, schedule: Q01DX Z (sc), vehicle: water
  T/C: 120 % of control
dose: 14.0 mg/kg/injection, schedule: Q01DX Z (sc), vehicle: water
  T/C: 150 % of control
dose: 23.0 mg/kg/injection, schedule: Q02DX Z (sc), vehicle: water
  T/C: 170 % of control
dose: 23.0 mg/kg/injection, schedule: Q## X Z (sc), vehicle: water
  T/C: 165 % of control
dose: 39.0 mg/kg/injection, schedule: Q01DX001 (sc), vehicle: water
  T/C: 160 % of control
dose: 39.0 mg/kg/injection, schedule: Q07DX Z (sc), vehicle: water
  T/C: 150 % of control

## OC(CBr)C(O)C(O)C(O)CBr (centres undefined)
dose: 108.0 mg/kg/injection, schedule: Q01DX009 (ip), vehicle: steriod suspending solution
  T/C: 105 % of control
dose: 108.0 mg/kg/injection, schedule: Q01DX009 (sc), vehicle: steriod suspending solution
  T/C: 100 % of control
dose: 180.0 mg/kg/injection, schedule: Q01DX009 (ip), vehicle: steriod suspending solution
  T/C: 116 % of control
dose: 180.0 mg/kg/injection, schedule: Q01DX009 (sc), vehicle: steriod suspending solution
  T/C: 111 % of control
dose: 180.0 mg/kg/injection, schedule: Q04DX003 (ip), vehicle: steriod suspending solution
  T/C: 100 % of control
dose: 180.0 mg/kg/injection, schedule: Q04DX003 (sc), vehicle: steriod suspending solution
  T/C: 105 % of control
dose: 300.0 mg/kg/injection, schedule: Q01DX009 (ip), vehicle: steriod suspending solution
  T/C: 122 % of control
dose: 300.0 mg/kg/injection, schedule: Q01DX009 (sc), vehicle: steriod suspending solution
  T/C: 116 % of control
dose: 300.0 mg/kg/injection, schedule: Q04DX003 (ip), vehicle: steriod suspending solution
  T/C: 111 % of control
dose: 300.0 mg/kg/injection, schedule: Q04DX003 (sc), vehicle: steriod suspending solution
  T/C: 111 % of control
dose: 500.0 mg/kg/injection, schedule: Q01DX009 (sc), vehicle: steriod suspending solution
  T/C: 155 % of control
dose: 500.0 mg/kg/injection, schedule: Q04DX003 (ip), vehicle: steriod suspending solution
  T/C: 100 % of control
dose: 500.0 mg/kg/injection, schedule: Q04DX003 (sc), vehicle: steriod suspending solution
  T/C: 105 % of control
dose: 833.0 mg/kg/injection, schedule: Q04DX003 (ip), vehicle: steriod suspending solution
  T/C: 122 % of control
dose: 833.0 mg/kg/injection, schedule: Q04DX003 (sc), vehicle: steriod suspending solution
  T/C: 122 % of control
dose: 1388.0 mg/kg/injection, schedule: Q01DX009 (sc), vehicle: other
  T/C: 111 % of control
dose: 1388.0 mg/kg/injection, schedule: Q01DX009 (sc), vehicle: steriod suspending solution
  T/C: 110 % of control
dose: 1388.0 mg/kg/injection, schedule: Q01DX015 (sc), vehicle: other
  T/C: 110 % of control
dose: 1388.0 mg/kg/injection, schedule: Q01DX015 (sc), vehicle: steriod suspending solution
  T/C: 110 % of control

## O=c1[nH]cc(S)c(=O)[nH]1
dose: 23.0 mg/kg/injection, schedule: Q01DX Z (sc), vehicle: other
  T/C: 100 % of control
dose: 39.0 mg/kg/injection, schedule: Q01DX Z (sc), vehicle: other
  T/C: 100 % of control
dose: 65.0 mg/kg/injection, schedule: Q01DX Z (sc), vehicle: other
  T/C: 100 % of control
dose: 108.0 mg/kg/injection, schedule: Q01DX Z (sc), vehicle: other
  T/C: 110 % of control
dose: 180.0 mg/kg/injection, schedule: Q01DX Z (sc), vehicle: other
  T/C: 110 % of control
dose: 300.0 mg/kg/injection, schedule: Q01DX Z (sc), vehicle: other
  T/C: 100 % of control

## CCCNc1ncnc2[nH]ncc12
dose: 64.8 mg/kg/injection, schedule: Q01DX Z (sc), vehicle: methylcellulose (MC)
  T/C: 120 % of control
[1]
  T/C: 110 % of control
[2]
  T/C: 100 % of control
[3]
  T/C: 100 % of control
dose: 500.0 mg/kg/injection, schedule: Q01DX Z (sc), vehicle: methylcellulose (MC)
  T/C: 100 % of control

## CN=C(NC)c1ccc(NC(=O)Nc2ccc(NC(=O)Nc3ccc(C(=NC)NC)cc3)cc2)cc1
dose: 3.0 mg/kg/injection, schedule: Q01DX Z (sc), vehicle: saline
  T/C: 100 % of control
dose: 5.0 mg/kg/injection, schedule: Q01DX Z (sc), vehicle: saline
  T/C: 105 % of control
dose: 8.4 mg/kg/injection, schedule: Q01DX Z (sc), vehicle: saline
  T/C: 100 % of control
dose: 14.0 mg/kg/injection, schedule: Q01DX Z (sc), vehicle: saline
  T/C: 105 % of control
[4]
  T/C: 115 % of control
[5]
  T/C: 110 % of control

## O=c1[nH]c(=O)n(C2CC(O)C(CO)O2)cc1F (centres undefined)
dose: 4.0 mg/kg/injection, schedule: Q01DX Z (sc), vehicle: saline
  T/C: 100 % of control
dose: 5.0 mg/kg/injection, schedule: Q01DX009 (ip), vehicle: water
  T/C: 100 % of control
dose: 5.0 mg/kg/injection, schedule: Q01DX009 (sc), vehicle: water
  T/C: 101 % of control
dose: 8.0 mg/kg/injection, schedule: Q01DX Z (sc), vehicle: saline
  T/C: 100 % of control
dose: 10.0 mg/kg/injection, schedule: Q01DX009 (ip), vehicle: water
  T/C: 97 % of control
dose: 10.0 mg/kg/injection, schedule: Q01DX009 (sc), vehicle: water
  T/C: 98 % of control
dose: 16.0 mg/kg/injection, schedule: Q01DX Z (sc), vehicle: saline
  T/C: 111 % of control
dose: 20.0 mg/kg/injection, schedule: Q01DX009 (ip), vehicle: water
  T/C: 101 % of control
dose: 20.0 mg/kg/injection, schedule: Q01DX009 (sc), vehicle: water
  T/C: 104 % of control
dose: 23.0 mg/kg/injection, schedule: Q01DX Z (sc), vehicle: saline
  T/C: 100 % of control
dose: 23.3 mg/kg/injection, schedule: Q01DX Z (sc), vehicle: saline
  T/C: 104 % of control
dose: 32.0 mg/kg/injection, schedule: Q01DX Z (sc), vehicle: saline
  T/C: 111 % of control
dose: 38.9 mg/kg/injection, schedule: Q01DX Z (sc), vehicle: saline
  T/C: 91 % of control
[4]
  T/C: 100 % of control
dose: 40.0 mg/kg/injection, schedule: Q01DX009 (ip), vehicle: water
  T/C: 110 % of control
dose: 40.0 mg/kg/injection, schedule: Q01DX009 (sc), vehicle: water
  T/C: 121 % of control
dose: 50.0 mg/kg/injection, schedule: Q01DX009 (sc), vehicle: water
  T/C: 100 % of control
dose: 64.0 mg/kg/injection, schedule: Q01DX Z (sc), vehicle: saline
  T/C: 105 % of control
dose: 64.8 mg/kg/injection, schedule: Q01DX Z (sc), vehicle: saline
  T/C: 100 % of control
[5]
  T/C: 100 % of control and 105 % of control
dose: 80.0 mg/kg/injection, schedule: Q01DX009 (ip), vehicle: water
  T/C: 124 % of control
dose: 100.0 mg/kg/injection, schedule: Q01DX009 (sc), vehicle: water
  T/C: 110 % of control
dose: 200.0 mg/kg/injection, schedule: Q01DX009 (sc), vehicle: water
  T/C: 150 % of control
dose: 256.0 mg/kg/injection, schedule: Q01DX Z (sc), vehicle: saline
  T/C: 161 % of control
dose: 400.0 mg/kg/injection, schedule: Q01DX009 (sc), vehicle: water
  T/C: 153 % of control

## C=CC(CN1CC1)OC(C)=O (centres undefined)
dose: 2.8 mg/kg/injection, schedule: Q01DX Z (sc), vehicle: saline
  T/C: 111 % of control
dose: 4.7 mg/kg/injection, schedule: Q01DX Z (sc), vehicle: saline
  T/C: 122 % of control
dose: 7.8 mg/kg/injection, schedule: Q01DX Z (sc), vehicle: saline
  T/C: 150 % of control
dose: 13.0 mg/kg/injection, schedule: Q01DX Z (sc), vehicle: saline
  T/C: 188 % of control
dose: 22.0 mg/kg/injection, schedule: Q01DX Z (sc), vehicle: saline
  T/C: 155 % of control
dose: 60.0 mg/kg/injection, schedule: Q01DX Z (sc), vehicle: saline
  T/C: 122 % of control

## CS(C)=O
dose: 1.5 grams/kg/injection, schedule: Q01DX009 (ip), vehicle: saline
  T/C: 103 % of control
dose: 3.0 grams/kg/injection, schedule: Q01DX009 (ip), vehicle: saline
  T/C: 97 % of control
dose: 6.0 grams/kg/injection, schedule: Q01DX009 (ip), vehicle: saline
  T/C: 103 % of control

## C[C@]12CCC(=O)C=C1CC[C@@H]1[C@@H]2C(=O)C[C@@]2(C)[C@H]1CC[C@]2(O)C(=O)CO
[6]
  T/C: 100 % of control
[7]
  T/C: 104 % of control
[1]
  T/C: 104 % of control
[2]
  T/C: 100 % of control
[3]
  T/C: 100 % of control

## CC[C@H](c1ccc(O)cc1)[C@@H](CC)c1ccc(O)cc1
[6]
  T/C: 100 % of control
[7]
  T/C: 100 % of control
[1]
  T/C: 100 % of control
